29 compounds from patent US7932270B2 (Cytokinetics, Inc., priority 2006, dated 2011) can be followed below.

The structures appear in SMILES notation.

In this assay the target is T1, chicken gizzard smooth muscle myosin subfragment-1 chemically crosslinked to cardiac or skeletal actin (Gallus gallus, UniProt P10587).
T1 construct: chicken gizzard smooth muscle myosin subfragment-1; from tissue; host or cells: chicken gizzard
T1 sequence (P02607 2-151): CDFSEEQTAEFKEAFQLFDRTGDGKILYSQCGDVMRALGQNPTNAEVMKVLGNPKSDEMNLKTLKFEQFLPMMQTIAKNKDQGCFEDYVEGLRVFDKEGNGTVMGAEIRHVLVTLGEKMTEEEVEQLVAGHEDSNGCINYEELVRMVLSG
T1 sequence (P10587 84-789): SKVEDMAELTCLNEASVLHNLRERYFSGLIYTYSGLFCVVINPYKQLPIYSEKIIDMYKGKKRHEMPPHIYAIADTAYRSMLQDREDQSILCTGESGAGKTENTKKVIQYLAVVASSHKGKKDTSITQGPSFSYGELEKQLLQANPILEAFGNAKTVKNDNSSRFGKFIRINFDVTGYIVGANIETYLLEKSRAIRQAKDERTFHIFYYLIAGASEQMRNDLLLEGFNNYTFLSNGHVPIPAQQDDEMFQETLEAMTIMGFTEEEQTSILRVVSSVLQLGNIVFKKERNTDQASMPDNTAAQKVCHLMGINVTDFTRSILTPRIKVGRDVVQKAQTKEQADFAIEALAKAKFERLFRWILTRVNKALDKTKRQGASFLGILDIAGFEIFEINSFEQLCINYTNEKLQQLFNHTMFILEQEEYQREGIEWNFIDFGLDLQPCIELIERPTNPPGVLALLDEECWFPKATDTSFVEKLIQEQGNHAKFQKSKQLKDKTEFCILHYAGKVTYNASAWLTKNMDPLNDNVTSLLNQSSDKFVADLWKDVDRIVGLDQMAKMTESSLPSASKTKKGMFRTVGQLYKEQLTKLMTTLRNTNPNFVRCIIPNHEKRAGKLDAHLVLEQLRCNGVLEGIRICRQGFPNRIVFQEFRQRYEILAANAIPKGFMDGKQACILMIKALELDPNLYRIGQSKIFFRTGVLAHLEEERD
Kind of assay: Smooth muscle myosin ATPase dose response assay (pyruvate kinase/horseradish peroxidase/pyruvate oxidase-coupled, amplex red fluorescence). Type of assay: biochemical. The settings on record: read-out: IC50 Arithmetic Mean. Put shortly:
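Lead-optimization format: ATPase coupled via pyruvate kinase, pyruvate oxidase and peroxidase, pH 7.00 at 22° C, with 0.15 mM ATP, 100 mM KCl, 2 mM MgCl2, 2 mM phosphate and 0.1 mM amplex red (final). Crosslinked S1 titrated empirically for set hydrolysis rate; fluorescence (ex 480/em 615 nm) dose curves fit 4-parameter for IC50.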
Turning to `O=C(NCc1ccno1)c1ccc(-c2ccccc2)nc1NCCc1ccccn1` [N-(isoxazol-5-ylmethyl){6-phenyl-2-[(2-(2-pyridyl)ethyl)amino](3-pyridyl)}carboxamide], the IC50 came to 836 nM. In the case of `CC(C)NC(=O)c1ccc(-c2ccccc2)nc1NCCc1ccccn1` [N-(methylethyl){6-phenyl-2-[(2-(2-pyridyl)ethyl)amino](3-pyridyl)}carboxamide] it was 13300 nM. For `O=C(NCC1CCCO1)c1ccc(-c2ccccc2)nc1NCCc1ccccn1` (centres unmarked) [N-(oxolan-2-ylmethyl){6-phenyl-2-[(2-(2-pyridyl)ethyl)amino](3-pyridyl)}carboxamide], the IC50 was found to be 11000 nM.

For the compound `NCCNc1ncccc1CNC(=O)c1ccc(-c2cn[nH]c2)nc1NCCc1cccc(F)c1` [N-({2-[(2-aminoethyl)amino](3-pyridyl)}methyl)(2-{[2-(3-fluorophenyl)ethyl]amino}-6-pyrazol-4-yl(3-pyridyl))carboxamide], the IC50 amounted to 122 nM. Regarding `N#Cc1ccccc1-c1ccc(C(=O)NCc2cccnc2NCCN)c(NCCc2cccc(F)c2)n1` [N-({2-[(2-aminoethyl)amino](3-pyridyl)}methyl)(6-(2-cyanophenyl)-2-{[2-(3-fluorophenyl)ethyl]amino}(3-pyridyl))carboxamide], the IC50 worked out at 13 nM. For `NCCCNc1ncccc1CNC(=O)c1ccc(-c2cn[nH]c2)nc1NCCc1cccc(F)c1` [N-({2-[(3-aminopropyl)amino](3-pyridyl)}methyl)(2-{[2-(3-fluorophenyl)ethyl]amino}-6-pyrazol-4-yl(3-pyridyl))carboxamide], the IC50 stood at 129 nM.

Consider `N#Cc1ccccc1-c1ccc(C(=O)NCc2cccnc2NCCCN)c(NCCc2cccc(F)c2)n1` [N-({2-[(3-aminopropyl)amino](3-pyridyl)}methyl)(6-(2-cyanophenyl)-2-{[2-(3-fluorophenyl)ethyl]amino}(3-pyridyl))carboxamide], for which the IC50 is 17 nM. Regarding `CN(C)C(=NCc1cncc(CNC(=O)c2ccc(-c3ccccc3C#N)nc2NCCc2cccc(F)c2)c1)N(C)C` [N-({5-[3,3-bis(dimethylamino)-2-azaprop-2-enyl](3-pyridyl)}methyl)(6-(2-cyanophenyl)-2-{[2-(3-fluorophenyl)ethyl]amino}(3-pyridyl))carboxamide], the 50% inhibitory concentration (IC50) stood at 2720 nM. In the case of `CN(C)C(=NCc1cccc(CNC(=O)c2ccc(-c3ccccc3C#N)nc2NCCc2cccc(F)c2)n1)N(C)C` [N-({6-[3,3-bis(dimethylamino)-2-azaprop-2-enyl](2-pyridyl)}methyl)(6-(2-cyanophenyl)-2-{[2-(3-fluorophenyl)ethyl]amino}(3-pyridyl))carboxamide] it was 285 nM; in that of `NCCNc1cccc(CNC(=O)c2ccc(-c3cn[nH]c3)nc2NCCc2cccc(F)c2)n1` [N-({6-[(2-aminoethyl)amino](2-pyridyl)}methyl)(2-{[2-(3-fluorophenyl)ethyl]amino}-6-pyrazol-4-yl(3-pyridyl))carboxamide], 20 nM.

For the compound `N#Cc1ccccc1-c1ccc(C(=O)NCc2cccc(NCCN)n2)c(NCCc2cccc(F)c2)n1` [N-({6-[(2-aminoethyl)amino](2-pyridyl)}methyl)(6-(2-cyanophenyl)-2-{[2-(3-fluorophenyl)ethyl]amino}(3-pyridyl))carboxamide], the IC50 was determined as 7 nM. Take `NCCCNc1cccc(CNC(=O)c2ccc(-c3cn[nH]c3)nc2NCCc2cccc(F)c2)n1` [N-({6-[(3-aminopropyl)amino](2-pyridyl)}methyl)(2-{[2-(3-fluorophenyl)ethyl]amino}-6-pyrazol-4-yl(3-pyridyl))carboxamide]: the IC50 is 18 nM. As for `N#Cc1ccccc1-c1ccc(C(=O)NCc2cccc(NCCCN)n2)c(NCCc2cccc(F)c2)n1` [N-({6-[(3-aminopropyl)amino](2-pyridyl)}methyl)(6-(2-cyanophenyl)-2-{[2-(3-fluorophenyl)ethyl]amino}(3-pyridyl))carboxamide], the IC50 is 5 nM. In the case of `N#Cc1ccccc1-c1ccc(C(=O)NC[C@H]2CCC(=O)N2CCCCN2C(=O)c3ccccc3C2=O)c(NCCc2cccc(F)c2)n1` [N-({(2R)-1-[4-(1,3-dioxobenzo[c]azolin-2-yl)butyl]-5-oxopyrrolidin-2-yl}methyl)(6-(2-cyanophenyl)-2-{[2-(3-fluorophenyl)ethyl]amino}(3-pyridyl))carboxamide] it was 376 nM; in that of `N#Cc1ccccc1-c1ccc(C(=O)NC[C@H]2CCCC(=O)N2CCCCN2C(=O)c3ccccc3C2=O)c(NCCc2cccc(F)c2)n1` [N-({(2R)-1-[4-(1,3-dioxobenzo[c]azolin-2-yl)butyl]-6-oxo(2-piperidyl)}methyl)(6-(2-cyanophenyl)-2-{[2-(3-fluorophenyl)ethyl]amino}(3-pyridyl))carboxamide], 791 nM. In the case of `N#Cc1ccccc1-c1ccc(C(=O)NC[C@H]2CCC(=O)N2CCCCCN2C(=O)c3ccccc3C2=O)c(NCCc2cccc(F)c2)n1` [N-({(2R)-1-[5-(1,3-dioxobenzo[c]azolin-2-yl)pentyl]-5-oxopyrrolidin-2-yl}methyl)(6-(2-cyanophenyl)-2-{[2-(3-fluorophenyl)ethyl]amino}(3-pyridyl))carboxamide] it was 266 nM; in that of `N#Cc1ccccc1-c1ccc(C(=O)NC[C@H]2CCCCN2S(=O)(=O)CCN)c(NCCc2cccc(F)c2)n1` [N-({(2R)-1-[(2-aminoethyl)sulfonyl](2-piperidyl)}methyl)(6-(2-cyanophenyl)-2-{[2-(3-fluorophenyl)ethyl]amino}(3-pyridyl))carboxamide], 178 nM. Take `N#Cc1ccccc1-c1ccc(C(=O)NC[C@H]2CCCN2S(=O)(=O)CCN)c(NCCc2cccc(F)c2)n1` [N-({(2R)-1-[(2-aminoethyl)sulfonyl]pyrrolidin-2-yl}methyl)(6-(2-cyanophenyl)-2-{[2-(3-fluorophenyl)ethyl]amino}(3-pyridyl))carboxamide]: the IC50 is 71 nM. In the case of `N#Cc1ccccc1-c1ccc(C(=O)NC[C@H]2CCCCN2S(=O)(=O)CCCN)c(NCCc2cccc(F)c2)n1` [N-({(2R)-1-[(3-aminopropyl)sulfonyl](2-piperidyl)}methyl)(6-(2-cyanophenyl)-2-{[2-(3-fluorophenyl)ethyl]amino}(3-pyridyl))carboxamide] it was 370 nM; in that of `N#Cc1ccccc1-c1ccc(C(=O)NC[C@H]2CCCN2S(=O)(=O)CCCN)c(NCCc2cccc(F)c2)n1` [N-({(2R)-1-[(3-aminopropyl)sulfonyl]pyrrolidin-2-yl}methyl)(6-(2-cyanophenyl)-2-{[2-(3-fluorophenyl)ethyl]amino}(3-pyridyl))carboxamide], 234 nM. In the case of `N#Cc1ccccc1-c1ccc(C(=O)NCCOCCN)c(NCCc2cccc(F)c2)n1` [N-[2-(2-aminoethoxy)ethyl](6-(2-cyanophenyl)-2-{[2-(3-fluorophenyl)ethyl]amino}(3-pyridyl))carboxamide] it was 1620 nM; in that of `CC(C)(C)OC(=O)N[C@@H](CCCN)C(=O)N1CC[C@@H]1CNC(=O)c1ccc(-c2ccccc2C#N)nc1NCCc1cccc(F)c1` [N-[2-((2R)-2-([(6-(2-cyanophenyl)-2-{[2-(3-fluorophenyl)ethyl]amino}(3-pyridyl))carbonylamino]methyl}azetidinyl)(1S)-1-(3-aminopropyl)-2-oxoethyl](tert-butoxy)carboxamide], 1350 nM; in that of `Cn1cc(-c2nc(NCCc3cccc(F)c3)c(C(=O)NC[C@H]3CCCN3C(=O)[C@H](CO)NC(=O)OC(C)(C)C)cc2F)cn1` [N-[2-((2R)-2-{[(5-fluoro-2-{[2-(3-fluorophenyl)ethyl]amino}-6-(1-methylpyrazol-4-yl)(3-pyridyl))carbonylamino]methyl}pyrrolidinyl)(1S)-1-(hydroxymethyl)-2-oxoethyl](tert-butoxy)carboxamide], 1200 nM. For the compound `C[C@H](NC(=O)OC(C)(C)C)C(=O)N1CCC[C@@H]1CNC(=O)c1cc(F)c(-c2cnn(C)c2)nc1NCCc1cccc(F)c1` [N-[2-((2R)-2-{[(5-fluoro-2-{[2-(3-fluorophenyl)ethyl]amino}-6-(1-methylpyrazol-4-yl)(3-pyridyl))carbonylamino]methyl}pyrrolidinyl)(1S)-1-methyl-2-oxoethyl](tert-butoxy)carboxamide], the half-inhibitory concentration (IC50) was 1950 nM.

For the compound `CC(C)(C)OC(=O)N[C@@H](CO)C(=O)N1CC[C@@H]1CNC(=O)c1ccc(-c2ccccc2C#N)nc1NCCc1cccc(F)c1` [N-[2-((2R)-2-{[(6-(2-cyanophenyl)-2-{[2-(3-fluorophenyl)ethyl]amino}(3-pyridyl))carbonylamino]methyl}azetidinyl)(1S)-1-(hydroxymethyl)-2-oxoethyl](tert-butoxy)carboxamide], the IC50 is 2480 nM. `C[C@H](NC(=O)OC(C)(C)C)C(=O)N1CCC[C@@H]1CNC(=O)c1ccc(-c2ccccc2C#N)nc1NCCc1cccc(F)c1` [N-[2-((2R)-2-{[(6-(2-cyanophenyl)-2-{[2-(3-fluorophenyl)ethyl]amino}(3-pyridyl))carbonylamino]methyl}pyrrolidinyl)(1S)-1-methyl-2-oxoethyl](tert-butoxy)carboxamide]: the half-maximal inhibitory concentration (IC50) came to 3260 nM. In the case of `CN(C)CCNC(=O)c1ccc(-c2ccccc2C#N)nc1NCCc1cccc(F)c1` [N-[2-(dimethylamino)ethyl](6-(2-cyanophenyl)-2-{[2-(3-fluorophenyl)ethyl]amino}(3-pyridyl))carboxamide] it was 4220 nM; in that of `CN(C)CCNC(=O)CNC(=O)c1ccc(-c2ccccc2C#N)nc1NCCc1cccc(F)c1` [N-[2-(dimethylamino)ethyl]-2-[(6-(2-cyanophenyl)-2-{[2-(3-fluorophenyl)ethyl]amino}(3-pyridyl))carbonylamino]acetamide], 9310 nM. In the case of `Cn1cc(-c2nc(NCCc3cccc(F)c3)c(C(=O)NC[C@H]3CCC(=O)N3CCCNC(=O)OC(C)(C)C)cc2C#N)cn1` [N-[3-((5R)-5-{[(5-cyano-2-{[2-(3-fluorophenyl)ethyl]amino}-6-(1-methylpyrazol-4-yl)(3-pyridyl))carbonylamino]methyl}-2-oxopyrrolidinyl)propyl](tert-butoxy)carboxamide] it was 1150 nM.

As a reminder, the IC50 is the concentration at which inhibition is half-maximal.
